# Tested on: LMNA aberrant splicing (MutLMNA-luc cell line)
# Assay: Luciferase assay for repression of LMNA aberrant splicing in stable 293 MutLMNA-luc cell line (293FLP LMNA LUC cells #8)
# Assay type: cell-based
# Conditions: 48 hours, compared to control untreated MutLMNA-luc cell line, read-out: Increase of luciferase activity
# Description: Advantage has been taken of the luciferase system. The luciferase assay is an extremely sensitive and rapid assay. Linear results are seen over at least eight orders of magnitude of enzyme concentration. Moreover, the luciferase assay is well suited for high-throughput applications. To conduct a Mid-throughput screening (MTS) for compounds repressing LMNA aberrant splicing, we have constructed a plasmid in which exon 11, intron 11 and part of exon 12 of LMNA gene were fused with luciferase cDNA (FIG. 2). Both wild type (WtLMNA-luc)(SEQ ID NO: 1) and mutant (MutLMNA-luc)(SEQ ID NO: 2) substrate harbouring exon 11 mutation have been constructed. In these constructs we have generated a single initiation codon in exon 11 such as correct splicing will lead to luciferase expression, while aberrant splicing will skip the initiation codon and thereby prevent luciferase expression. After transfection in HeLa cells, Luciferase assays (FIG. 2B) and RT-PCR (FIG. 2C) indicate that WtLMNA-luc produces predominantly wild type splicing and large amount of luciferase activity, whereas MutLMNA-luc recapitulate the aberrant splicing profile with reduced luciferase expression (FIGS. 2 B and C, compare Wt and Mut). In order to use this system in MTS, we have generated a stable 293 cell lines containing a single integrated copy of luciferase reporter containing LMNA mutation (MutLMNA-luc cell line) using the flp system from INVITROGEN. This system allows us to perform a MTS for compounds able to enhance luciferase activity.
# LMNA sequences (1278 bp of exon 11, intron 11 and 46 bp of […]) were PCR-amplified from either control or patient's cells genomic DNA with specific primer PCR fragments were purified with Concert Rapid PCR purification system (Invitrogen) and subcloned at the BamHI and EcoRI restriction sites of the pSppβm3 S1 plasmid containing the βGlobin cassette (Labourier et al., 1999—Recognition of exonic splicing enhancer sequences by the Drosophila splicing repressor RSF1. Nucleic Acids Res. 27, 2377-2386) to give the βGlo3S1LMNAwt and βGlo3S1LMNAmut constructs. The chimeric (3Glo-LMNA sequences were then inserted into the pcDNA3.1D/V5-His-TOPO vector (Invitrogen) to be used in transfection and in vitro splicing experiments. A single initiation codon ATG was kept in exon 11 of LMNA and LMNA sequences described above were fused at their 3′ end to Fyrefly luciferase cDNA (LMNAlucWT) in order that removal of intron 11 generates a transcript that encode a fusion protein harbouring luciferase activity, whereas usage of the cryptic splice site of mutated exon 11 (LMNAlucMut) will remove the initiation codon preventing luciferase expression. Both sequences were cloned in pcDNA3 Flp-In vector (Invitrogen).
# A stable 293 cell line containing a single copy of LMNAlucMut minigene was obtained using the Flp-In system from (Invitrogen) according to manufacture procedure. Several clones were obtained and only one clone was used to screen the whole chemical library (293FLP LMNA LUC cells #8).
# In a 96 Well Plate sterile, V-shape one put […] of drug compounds at 50 mM and then add 49.5 μl of 10% DMSO.
# One pipets […] of drug at 500 μM and adds 200 μL of DMEM+Hygromycin B. At this stage the concentration of drug compound is 10 μM. One shares out 100 μl in a 96 Well Microplate sterile, flat bottom (further called luciferase plate) and 50 μl in other one (further called toxicity plate).
# One washes 293FLP LMNA LUC cells once with D-PBS then adds 1 ml trypsin EDTA. Incubation at 37° C. for 2-3 minutes is proceeded. Then one adds 9 ml DMEM (with 10% FCS, P/S).
# Cell concentration is brought at 10^5 cells per ml with DMEM+Hygromycin B to have 10^4 cells per 100 μl.
# 100 μl of suspension cells is added (at 10^4 cells per 100 μl) so final concentration of compounds is […].
# Medium of the wells is gently removed then washed once by adding slowly 150 μl of D-PBS 1×. D-PBS is removed. 40 μl of PLB 1× is added and incubated at RT for 30 minutes. […]
row,Structure (SMILES),fold induction at 5 µM
1,"O=C(O)c1ccnc(Nc2ccc3ccccc3n2)c1 [Compound 2, 2-(Quinolin-2-ylamino)-isonicotinic acid]",3.77
2,"Cc1ccnc(Nc2ccc3ccccc3n2)c1 [Compound 3, (4-Methyl-pyridin-2-yl)-quinolin-2-yl-amine]",4.54
3,"c1ccc(Nc2ccc3ccccc3n2)nc1 [Compound 4, Pyridin-2-yl-quinolin-2-yl-amine]",4.43
4,"O=C(O)c1ccnc(Nc2ccc3cccc(Cl)c3n2)c1 [Compound 5, 2-(8-Chloro-quinolin-2-ylamino)-isonicotinic acid]",2.02
5,"N#Cc1ccc(Nc2ccc3ccccc3n2)nc1 [Compound 7, 6-(Quinolin-2-ylamino)-nicotinonitrile]",3.33
6,"FC(F)(F)Oc1ccc(Nc2ccc3ccccc3n2)cc1 [Compound 8, Quinolin-2-yl-(4-trifluoromethoxy-phenyl)-amine]",3.35
7,"c1ccc(Nc2cnc3ccccc3c2)nc1 [Compound 9, Pyridin-2-yl-quinolin-3-yl-amine]",2.47
8,"COc1cccnc1Nc1cnc2ccccc2c1 [Compound 10, (3-Methoxy-pyridin-2-yl)-quinolin-3-yl-amine]",2.01
9,"Cc1ccc(Nc2cnc3ccccc3c2)nc1 [Compound 13, (5-Methyl-pyridin-2-yl)-quinolin-3-yl-amine]",3.46
10,"FC(F)(F)c1ccc(Nc2ccc3ncccc3c2)nc1 [Compound 15, Quinolin-6-yl-(5-trifluoromethyl-pyridin-2-yl)-amine]",2.17
11,"Cc1cccc(Nc2ccc3ncccc3c2)n1 [Compound 16, (6-Methyl-pyridin-2-yl)-quinolin-6-yl-amine]",4.56
12,"Cc1cccc(Nc2ccc3ccccc3n2)n1 [Compound 17, N-(6-methylpyridin-2-yl)quinolin-2-amine]",3.66
13,"Cc1cccc(Nc2ccc3cccc(Cl)c3n2)n1 [Compound 18, 8-chloro-N-(6-methylpyridin-2-yl)quinolin-2-amine]",2.85
14,"Cc1ccnc(Nc2ccc3cc(Cl)ccc3n2)c1 [Compound 25, 6-chloro-N-(4-methylpyridin-2-yl)quinolin-2-amine]",3.49
15,"Cc1cccc(Nc2ccc3cc(Cl)ccc3n2)n1 [Compound 26, 6-chloro-N-(6-methylpyridin-2-yl)quinolin-2-amine]",6.2
16,"O=[N+]([O-])c1cccnc1Nc1ccc2ccccc2n1 [Compound 28, N-(3-nitropyridin-2-yl)quinolin-2-amine]",2.99
17,"Cc1cccnc1Nc1ccc2ccccc2n1 [Compound 31, N-(3-methylpyridin-2-yl)quinolin-2-amine]",5.07
18,"Cc1ccc(Nc2ccc3ccccc3n2)nc1 [Compound 32, N-(5-methylpyridin-2-yl)quinolin-2-amine]",2.96
19,"N#Cc1ccnc(Nc2ccc3ccccc3n2)c1 [Compound 33, 2-(quinolin-2-ylamino)isonicotinonitrile]",2.14
20,"FC(F)(F)c1ccc(Nc2ccc3ccccc3n2)nc1 [Compound 34, N-(5-(trifluoromethyl)pyridin-2-yl)quinolin-2-amine]",4.18
21,"Cc1cccnc1Nc1ccc2cccc(Cl)c2n1 [Compound 35, 8-chloro-N-(3-methylpyridin-2-yl)quinolin-2-amine]",2.74
22,"Cc1ccc(Nc2ccc3cccc(Cl)c3n2)nc1 [Compound 36, 8-chloro-N-(5-methylpyridin-2-yl)quinolin-2-amine]",3.06
23,"COc1cccnc1Nc1ccc2ccccc2n1 [Compound 38, N-(3-methoxypyridin-2-yl)quinolin-2-amine]",5.81

row,Structure (SMILES),fold induction at 5 µM
1,"O=[N+]([O-])c1ccc(Nc2ccc3ccccc3n2)nc1 [Compound 39, N-(5-nitropyridin-2-yl)quinolin-2-amine]",4.29
2,"Fc1ccc(Nc2ccc3ccccc3n2)nc1 [Compound 41, N-(5-fluoropyridin-2-yl)quinolin-2-amine]",3.32
3,"FC(F)(F)c1cccc(Nc2ccc3ccccc3n2)n1 [Compound 42, N-(6-(trifluoromethyl)pyridin-2-yl)quinolin-2-amine]",3.87
4,"COC(=O)c1ccc(Nc2ccc3ccccc3n2)nc1 [Compound 59, methyl 6-(quinolin-2-ylamino)nicotinate]",2.49
5,"COC(=O)c1ccc(Nc2nc3ccccc3cc2C)nc1 [Compound 61, methyl 6-[(3-methylquinolin-2-yl)amino]pyridine-3-carboxylate]",2.04
6,"FC(F)(F)Oc1cccc(Nc2ccc3ccccc3n2)c1 [Compound 83, N-[3-(trifluoromethoxy)phenyl]quinolin-2-amine]",2.74
7,"c1ccc(Oc2ccc(Nc3ccc4ccccc4n3)cc2)cc1 [Compound 102, N-(4-phenoxyphenyl)quinolin-2-amine]",2.06
8,"Cc1cccc(Nc2cnc3ccccc3c2)n1 [Compound 105, N-(6-methylpyridin-2-yl)quinolin-3-amine]",3.25
9,"Cc1ccc(Nc2ccc3ncccc3c2)nc1 [Compound 107, N-(5-methylpyridin-2-yl)quinolin-6-amine]",2.2
10,"COc1cccnc1Nc1ccc2ncccc2c1 [Compound 108, N-(3-methoxypyridin-2-yl)quinolin-6-amine]",4.57
11,"c1ccc2nc(Nc3cnccn3)ccc2c1 [Compound 113, N-(pyrazin-2-yl)quinolin-2-amine]",2.28
12,"c1ccc2nc(Nc3ccncc3)ccc2c1 [Compound 120, N-(pyridin-4-yl)quinolin-2-amine]",2.38
13,"COc1ccc(Nc2cnc3ccccc3c2)cc1 [Compound 123, N-(4-methoxyphenyl)quinolin-3-amine]",2.94
14,"Cc1cc(OC(F)(F)F)ccc1Nc1cnc2ccccc2n1 [Compound 125, N-[2-methyl-4-(trifluoromethoxy)phenyl]quinoxalin-2-amine]",2.59
15,"c1cnc(Nc2ccc3ccccc3n2)nc1 [Compound 128, N-(pyrimidin-2-yl)quinolin-2-amine]",3.08
16,"c1ccc(Nc2cnc3ccccc3n2)nc1 [Compound 135, N-(pyridin-2-yl)quinoxalin-2-amine]",4.58
17,"N#Cc1ccc(Nc2cnc3ccccc3n2)nc1 [Compound 137, 6-(quinoxalin-2-ylamino)pyridine-3-carbonitrile]",4.64
18,"Cc1cccc(Nc2cnc3ccccc3n2)n1 [Compound 138, N-(6-methylpyridin-2-yl)quinoxalin-2-amine]",8.22
19,"c1cnc(Nc2cnc3ccccc3n2)nc1 [Compound 142, N-(pyrimidin-2-yl)quinoxalin-2-amine]",4.47
20,"COc1ccnc2cc(Nc3ccccn3)ccc12 [Compound 145, 4-methoxy-N-(pyridin-2-yl)quinolin-7-amine]",3.87
21,"COc1ccnc2cc(Nc3cc(C)ccn3)ccc12 [Compound 146, 4-methoxy-N-(4-methylpyridin-2-yl)quinolin-7-amine]",4.18
22,"Cc1ccnc(Nc2ccc3c(N(C)C)ccnc3c2)c1 [Compound 147, 4-N,4-N-dimethyl-7-N-(4-methylpyridin-2-yl)quinoline-4,7-diamine]",2.94

# Source: patent publication US10975063B2, “Compound, and production method thereof, and methods of treatment using the compound” (ABIVAX, priority 2009, dated 2021)
